The values below come from PubChem BioAssay (NCI).

Several values for one entry are separate records, joined by “and”; a condition that tells them apart may be missing. Equal entries are not always repeated.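 Dose response: 5 concentrations. Exposure: 48 h. Format: 96-well plates. Endpoint: linear interpolation; highest concentration if not reached. At the GI50, growth is halved. TGI marks complete inhibition of growth.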

Test systems include A549 NSCLC; CAKI-1 renal; HT29 colon; SF-539 CNS; TK-10 renal; MDA-MB-231 breast; MCF7 breast; NCI-H23 lung; SF-268 CNS; CCRF-CEM leukemia.
Assay in all cases: DTP human tumour cell line panel, 48 h

Take `COc1cc2c3c(n(CCCN4CCNCC4)c(=O)c2cc1OC)-c1cc2c(cc1C3=O)OCO2`: the GI50 in the experiment on A549 NSCLC was 0.0393 µM; in the experiment on CAKI-1 renal it was 0.128 µM; with HT29 colon, 0.942 µM; with SF-539 CNS it was 0.0399 µM; in the experiment on TK-10 renal it was 0.762 µM; in the experiment on MDA-MB-231 breast it was 0.803 µM. Besides, the GI50 with MCF7 breast is 0.0119 µM; in the experiment with NCI-H23 lung it was 0.104 µM; in the experiment on SF-268 CNS it was 0.795 µM; in the experiment on CCRF-CEM leukemia, 0.0118 µM. For the same compound, the TGI with A549 NSCLC was determined as 0.922 µM; in the experiment on CAKI-1 renal it was 2.02 µM; in the experiment on HT29 colon, 29.8 µM; in the experiment with SF-539 CNS it was 0.355 µM; with TK-10 renal it was 2.66 µM; with MDA-MB-231 breast, 2.23 µM. The TGI in the experiment on MCF7 breast came to 7.66 µM; with NCI-H23 lung, 1.47 µM; in the experiment on SF-268 CNS, 8.49 µM; in the experiment on CCRF-CEM leukemia it was 0.389 µM.

For `Cc1ccc([P+](Cc2ccccc2)(c2ccccc2)c2ccccc2)cc1`, the GI50 in the experiment with A549 NSCLC is 3.08 µM; with CAKI-1 renal, 5.83 µM; in the experiment with HT29 colon it was 1.6 µM; with SF-539 CNS, 3.03 µM; in the experiment with MDA-MB-231 breast it was 2.17 µM; in the experiment on MCF7 breast it was 1.92 µM. Also, the GI50 in the experiment with SF-268 CNS was 3.66 µM; with CCRF-CEM leukemia, 2.5 µM. In addition, the TGI is 64.8 µM with A549 NSCLC; more than 100 µM with CAKI-1 renal; 10.5 µM in the experiment on HT29 colon; 50.9 µM in the experiment on SF-539 CNS; 19.2 µM in the experiment on MDA-MB-231 breast; more than 100 µM with MCF7 breast. Moreover, the TGI in the experiment on SF-268 CNS is more than 100 µM; with CCRF-CEM leukemia it was 18.9 µM.

On to `CN1CC=C(c2cc(NC(=O)Nc3ccc(Oc4ccnc(NC(=O)C5CC5)c4)c(F)c3)cc(C(F)(F)F)c2)CC1`, for which the GI50 with A549 NSCLC is 0.247 µM; with HT29 colon, 0.166 µM; in the experiment with SF-539 CNS, 0.888 µM; in the experiment with TK-10 renal, 1.62 µM; with MDA-MB-231 breast, 0.176 µM; in the experiment with MCF7 breast, 0.153 µM. For the same compound, the GI50 is 0.172 µM with NCI-H23 lung, 0.206 µM in the experiment on SF-268 CNS and 0.126 µM in the experiment on CCRF-CEM leukemia. The TGI with A549 NSCLC turned out to be 1.8 µM; in the experiment with HT29 colon, 0.678 µM; with SF-539 CNS it was 1.86 µM; in the experiment on TK-10 renal, 3.91 µM; in the experiment on MDA-MB-231 breast, 0.806 µM; with MCF7 breast, 0.693 µM. The values for the TGI in the experiment with NCI-H23 lung, in the experiment with SF-268 CNS and in the experiment with CCRF-CEM leukemia were 0.712 µM, 1.41 µM and 0.702 µM, respectively.

Consider `CC1=C/C=C/C(=O)O[C@@H]([C@H](C)[C@H](O)[C@@H](C)NC(=O)C(C)C)[C@H](C)/C=C/C(C)=C/[C@H]2C=CCC[C@@]2(C)\C=C\1`, for which the GI50 in the experiment on A549 NSCLC was 1.83 µM and 0.328 µM; in the experiment with HT29 colon, 0.233 µM and 0.0595 µM; in the experiment on SF-539 CNS it was 0.0586 µM and 0.0588 µM; in the experiment with TK-10 renal, 6.12 µM; in the experiment on MDA-MB-231 breast, 0.0186 µM; with MCF7 breast, 0.0746 µM and 0.0382 µM. Besides, the GI50 was 1.75 µM and 1.49 µM in the experiment with NCI-H23 lung; 5.17 µM and 2.26 µM with CCRF-CEM leukemia. For the same compound, the TGI with A549 NSCLC is 13.2 µM; in the experiment with HT29 colon it was 6.85 µM; in the experiment on SF-539 CNS, 5.3 µM; in the experiment on TK-10 renal, 19 µM; with MDA-MB-231 breast, 0.106 µM; in the experiment on MCF7 breast it was 23.7 µM. Further, the figures for the TGI in the experiment on NCI-H23 lung, in the experiment on SF-268 CNS and with CCRF-CEM leukemia were 15.2 µM, 17.7 µM and 17.6 µM, respectively.

For `CCCCCCCCCCCCCC[n+]1ccccc1`, the GI50 in the experiment with A549 NSCLC is 1.22 µM; with CAKI-1 renal it was 0.833 µM; with HT29 colon, 0.269 µM; in the experiment on SF-539 CNS, 1.28 µM; in the experiment with TK-10 renal it was 0.491 µM; in the experiment with MDA-MB-231 breast it was 0.771 µM. Also, the GI50 was 0.489 µM with MCF7 breast, 0.507 µM with NCI-H23 lung and 0.334 µM in the experiment on CCRF-CEM leukemia. Further, the TGI in the experiment on A549 NSCLC worked out at 2.84 µM; with CAKI-1 renal, 5.43 µM; in the experiment on HT29 colon it was 1.46 µM; with SF-539 CNS, 2.6 µM; with TK-10 renal it was 1.81 µM; in the experiment on MDA-MB-231 breast, 2.52 µM. The TGI is 2.66 µM in the experiment on MCF7 breast, 3.02 µM in the experiment with NCI-H23 lung and 1.99 µM in the experiment with CCRF-CEM leukemia.

With `COC1=CC(c2ccc[nH]2)=N/C1=C\c1[nH]c(C)c(C(=O)CCC(=O)Oc2ccc3c(c2)CCC2C3CC[C@]3(C)[C@@H](O)CC[C@@H]23)c1C` (some centres undefined), the GI50 in the experiment on A549 NSCLC is 2.47 µM; in the experiment on CAKI-1 renal, 2.38 µM; in the experiment on SF-539 CNS it was 3.69 µM; in the experiment on TK-10 renal it was 7.68 µM; in the experiment with MDA-MB-231 breast, 0.46 µM; in the experiment on MCF7 breast it was 0.917 µM. Moreover, the GI50 with NCI-H23 lung is 3.56 µM; in the experiment with SF-268 CNS, 2.91 µM; in the experiment with CCRF-CEM leukemia it was 0.304 µM. The TGI with A549 NSCLC was 9.18 µM; in the experiment on CAKI-1 renal it was more than 100 µM; in the experiment with SF-539 CNS, 28.8 µM; in the experiment with TK-10 renal, more than 100 µM; in the experiment with MDA-MB-231 breast it was 2.55 µM; with MCF7 breast it was more than 100 µM. The TGI in the experiment on NCI-H23 lung, with SF-268 CNS and in the experiment on CCRF-CEM leukemia was more than 100 µM each time.

With `O=C(CN1CCN(Cc2ccccc2Cl)CC1)NC1CC(=O)c2c(Br)sc(Br)c21` (centres undefined), the GI50 with A549 NSCLC was 41.9 µM; in the experiment on CAKI-1 renal, 19.9 µM; in the experiment with HT29 colon, 18 µM; in the experiment with SF-539 CNS it was 20.3 µM; in the experiment with TK-10 renal, 44.3 µM; in the experiment with MDA-MB-231 breast, 21.1 µM. Moreover, the results for the GI50 with MCF7 breast, in the experiment on SF-268 CNS and with CCRF-CEM leukemia were 18.1 µM, 19 µM and 20.7 µM, respectively. For the same compound, the TGI is more than 100 µM in the experiment on A549 NSCLC; 37.6 µM in the experiment on CAKI-1 renal; 32.2 µM with HT29 colon; 36.1 µM with SF-539 CNS; 97.1 µM in the experiment on TK-10 renal; 39.8 µM in the experiment on MDA-MB-231 breast. Also, the TGI in the experiment on MCF7 breast came out at 33.8 µM; in the experiment with SF-268 CNS, 36.7 µM; with CCRF-CEM leukemia, 54.8 µM.

Turning to `COC(=O)Oc1nn(C(=O)OC)c(=O)c2ccccc12`, the TGI in the experiment on A549 NSCLC, in the experiment with CAKI-1 renal, in the experiment with SF-539 CNS, with TK-10 renal, with MDA-MB-231 breast and in the experiment with MCF7 breast was more than 100 µM in each case. Also, the TGI with NCI-H23 lung, with SF-268 CNS and in the experiment with CCRF-CEM leukemia was more than 100 µM throughout.
